Laboratory results published in PubChem BioAssay (NCI).
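Compound exposure: 48 hours, 5 concentrations, 96-well plates. At the GI50, growth is halved. Definition used: TGI = concentration required for complete inhibition of growth.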

Tested on: RXF-631 renal
Assay: NCI-60 cell line screen, 48 h

Q: For `CCC[CH2][Sn]([CH2]CCC)([O]C(=O)C(N)CSC)[O]C(=O)C(N)CSC` (stereo not drawn), which GI50 is on record?
A: 3.16 µM

Q: What about the TGI of the same compound?
A: 17.3 µM

Q: `CCCCc1ccc(-n2c3nc(=O)n(C)c(=O)c-3nc3ccccc32)cc1` was tested. Which TGI did it give?
A: 35.3 µM

Q: Which TGI does the source give for `Nc1ncn(C2C=C(CO)C(O)C2O)c(=O)n1` (stereo not drawn) here?
A: > 100 µM

Q: With `COc1ccc(C(=O)OC2C=COC(C)C2OC(=O)c2ccc(OC)cc2)cc1` (stereo not drawn) as the compound, how does the TGI read?
A: 81.3 µM

Q: With `O=c1[nH]c2c3ccccc3ccc2c2cc3c(cc12)OCO3` as the compound, how does the TGI read?
A: > 100 µM

Q: For `CCc1nc(N)nc(C(=O)NCCNC(=O)c2nc(N)nc(CC)c2C)c1C`, which TGI is on record?
A: > 100 µM

Q: How did the TGI turn out when `CSc1nc(NC(=O)O)c(N(C(C)=O)C(=O)O)c(=O)n1C` was run?
A: > 100 µM

Q: Which TGI does the source give for `Cc1ccc(/C=C/C(=O)c2sc(-c3cccnc3)nc2C)cc1` here?
A: > 100 µM

Q: Which TGI does the source give for `COc1ccc2cc3[n+](cc2c1OC)CCc1cc(O)c(O)cc1-3` here?
A: > 100 µM

Q: With `COC(=O)C12C3C4C5C3(C#N)C1C5(C(=O)OC)C42C(=O)N(C(C)C)C(C)C` (stereo not drawn) as the compound, how does the TGI read?
A: > 100 µM

Q: For `CCn1c(O)c(C=N)c(=O)n(CC)c1=O`, which TGI is on record?
A: > 100 µM

Q: `CCCCCCCCCCC(O)C1CCC(C(O)CCC(O)C2CCC(CCCCCCC[C@H](O)CC3=C[C@@H](C)OC3=O)O2)O1` (stereo partly drawn) was tested. Which TGI did it give?
A: > 100 µM

Q: With `O=C1NC2CCC(C2)C1c1ccccc1` (stereo not drawn) as the compound, how does the TGI read?
A: > 100 µM

Q: Which TGI does the source give for `CCCn1c(SCC)c2cc3cc4ccccc4cc3cc2c1-c1nc(F)nc(F)n1` here?
A: > 100 µM

Q: With `O=c1ccnc2c1ccc1[nH]cccc12` as the compound, how does the TGI read?
A: > 100 µM

Q: `CC(=O)/C(=C\C1=CCCO1)C(=O)Nc1ccccc1C` was tested. Which TGI did it give?
A: > 100 µM

Q: For `CC1(C)CCC[C@@]2(C)C1CC[C@H]1CC(O)C3(C)CCC12C3` (stereo partly drawn), which TGI is on record?
A: 33.5 µM
